Laboratory results: a melting point compilation (Tetko et al.)

| SMILES | melting point |
| --- | --- |
| O=C1C=CC2(CCC23C=CC(=O)O3)O1 (configuration not stated) | 158 °C |
| O=C(O)c1c(F)cccc1C(F)(F)F | 88 to 89 °C |
| Cc1cc(Br)cc(Cl)c1O | 45 to 47 °C |
| CCOC(=O)C=C1SC(N2CCCCC2)C(=O)N1CC (configuration not stated) | 86 °C |
| O=C1C=C(NCCCCc2ccccc2)C(=O)c2ccccc21 | 137 °C |
| CCC=C1CCC2C3CCC4CC(OC(C)=O)CCC4(C)C3CCC12C (configuration not stated) | 114 °C |
| COc1ccc(-c2ccc(S(=O)(=O)NC(CCSC)C(=O)O)cc2)cc1 (configuration not stated) | 174 °C |
| Cc1cc(C)c(N)cc1C | 68 °C |
| Cc1cc(CCN2CCN(c3cccc(Cl)c3)CC2)n[nH]1 | 106 °C |
| Cc1c(N/N=C(/C#N)c2nc(-c3ccccc3)cs2)c(=O)n(-c2ccccc2)n1C | 226 °C |
| Nc1ncnc2c1ccn2C1OC(CO)C(O)C1O (configuration not stated) | 247 °C |
| CN1CCN(c2ccc(N)cc2)CC1 | 92 °C |
| COc1ccc(C(=O)NNC(=O)c2cccc3ccccc23)cc1 | 189 °C |
| N#Cc1cc(F)c(Cl)cc1Cl | 46 °C |
| Cc1cc(C)nc(Nc2ccccc2)n1 | 96.3 °C |
| Cc1cc(I)cnc1NCC(=O)OC(C)(C)C | 99 °C |
| N#C/C(=N/Nc1cccc([N+](=O)[O-])c1)c1nc(-c2ccccc2)cs1 | 215 °C |
| CC(=O)OC(OC(C)=O)c1ccco1 | 53.3 °C |
| Nc1ccc2c(n1)[nH]c1ccccc12 | 202 °C |
| COP(=O)(OC)OC(=CCl)c1ccc(Cl)cc1Cl | 69.5 °C |

| SMILES | melting point |
| --- | --- |
| Brc1ccc(Oc2ccc(Br)c(Br)c2Br)c(Br)c1Br | 183 °C |
| CCOCCC(OCC)OCC | 53 °C |
| CCOO | -100 °C |
| Nc1c(F)c(F)c(Br)c(F)c1F | 59 to 61 °C |
| c1ccc(-c2ccc(-c3nnc(-c4ccc(-c5ccccc5)cc4)o3)cc2)cc1 | 237 °C |
| O=C1C(=Cc2ccc(N(CCCl)CCCl)cc2)SC(=S)N1CN1CCOCC1 | 164 °C |
| CCCC(=O)c1cc(O)c(O)cc1O | 154 °C |
| COC(=O)c1cnc(SCC(=O)NC(=O)Nc2ccccc2)n1C | 204 to 205 °C |
| O=C1CCC(=O)N1c1nnc(C(F)(F)F)s1 | 221 °C |
| CC(=O)N1CC(c2ccccc2)C=C1c1ccccc1 (configuration not stated) | 105 °C |
| C=CC(=O)N1CCN(C(=O)C=C)CC1 | 93 °C |
| CCNS(=O)(=O)C(F)(F)C(F)(F)C(F)(F)C(F)(F)C(F)(F)C(F)(F)C(F)(F)C(F)(F)F | 96 °C |
| O=C(O)C1C2CC3(OCCO3)C1CC2Cl (configuration not stated) | 164 to 166 °C |
| CCc1c(C)c[nH]c1C | 0 °C |
| COC(=O)C1(C(=O)OC)Cc2c(C)cccc2C(=O)O1 | 100 °C |
| C=C1C(=O)C23C(OC)CC4C5(C)CCCC4(COC5)C2C(OC(C)=O)CC1C3O (configuration not stated) | 183 °C |
| CC12Cc3nonc3CC1CCC1C2CCC2(C)C1CCC2(C)O (configuration not stated) | 152 °C |
| FC(F)(F)C1(F)C(F)(F)C(F)(F)C(F)(F)C(F)(C(F)(F)F)C1(F)F (configuration not stated) | -55 °C |
| COc1cc([N+](=O)[O-])c(OC)cc1Cl | 144 to 145 °C |
| C=CCc1ccc2c(c1)OCO2 | 11.2 °C |

| SMILES | melting point |
| --- | --- |
| CC(=O)C1CC[C@]2(C)[C@H]3CC[C@]4(C)C(O)CC[C@H]4[C@@H]3CC[C@@]2(C)C1 (some centres not stated) | 152 °C |
| COc1ccc(C(O)C(=O)O)cc1O (racemic) | 125 to 132 °C |
| Cc1ccc2c(C)cccc2c1 | -16.9 °C |
| O=Cc1cc(F)c(F)c(F)c1 | 25.3 °C |
| OC1CCCCCCCCCCCCCC1 | 80.5 °C |
| Nc1ccc(Sc2ccc(N)cc2)cc1 | 108 °C |
| O=C(O)c1ccc(C(=O)O)c(OC(F)(F)F)c1 | 270 to 272 °C |
| C#CC1(O)C=CC2C3CCC4=CC(=O)CCC4C3CCC21CC (configuration not stated) | 198 °C |
| COc1ccc(Br)c2c1C(=NNc1ccc([N+](=O)[O-])cc1[N+](=O)[O-])C2 | 288 to 289 °C |
| CCC12CC3CC(C1)CC(C(=O)O)(C3)C2 | 94 to 96 °C |
| NCCCCCCCC(=O)O | 195 °C |
| Oc1ccc2ccc3cccc4ccc1c2c34 | 180 °C |
| O=[N+]([O-])c1ccc(-c2nnc3n2CN(c2ccccn2)CS3)cc1 | > 300 °C |
| CCC(N)Cc1c[nH]c2ccccc12 (configuration not stated) | 97 °C |
| NCc1cc(C(F)(F)F)ccc1N1CCOCC1 | 31 to 34 °C |
| C1OC2COCOC2C2OCOCC2O1 (configuration not stated) | 232 to 233 °C |
| Brc1ccc(Oc2ccc(Br)c(Br)c2Br)c(Br)c1 | 119 to 121 °C |
| Cc1ccc(S(=O)(=O)OC2CCC3(C)C(CCC4C5CC(=O)CC5(C)CCC43)C2)cc1 (configuration not stated) | 165 to 166 °C |
| CC(=O)Nc1cc([N+](=O)[O-])c(/C=C/c2ccccc2)c([N+](=O)[O-])c1/C=C/c1ccccc1 | 171 °C |
| CC1=CC(=O)CCC1 | -21 °C |

Continued, values first:

| melting point | SMILES |
| --- | --- |
| 41 °C | BrCCC(c1ccccc1)c1ccccc1 |
| 250 °C | O=C(O)C1c2ccccc2C(=O)N(Cc2ccc(F)cc2)C1c1cccnc1 (configuration not stated) |
| 245 °C | CN1C(=O)C(=NNC(N)=S)c2ccccc21 |
| -20 °C | C=C(C)c1ccc(C)cc1 |
| 262 °C | O=c1ccc2ccc(O)c(O)c2o1 |
| 262 to 264 °C | Cc1nc(-c2ccc(C(=O)O)cc2)no1 |
| 84 °C | O=S(O)c1ccccc1 |
| -82.5 °C | CCCc1cccc(C)c1 |
| 161 to 165 °C | Cc1ccccc1C(=O)NCC(=O)O |
| 85 to 91 °C | CCn1c2ccccc2c2cc(C=O)ccc21 |
| 96 °C | O=C(Nc1ccccc1[N+](=O)[O-])c1ccccc1 |
| 218 to 221 °C | Cc1ccc(Sc2ncccc2C(=O)O)cc1 |
| 293 to 294 °C | O=C(O)c1cc2cccnc2s1 |
| 61 °C | Nc1ccc(CO)cc1 |
| 92 °C | CC(C)=C1C2C=CC1c1ccccc12 |
| 26 °C | Cc1cc(F)ccc1CC#N |

| melting point | SMILES |
| --- | --- |
| 200 to 202 °C | CSc1nc(N)c(C(=O)c2ccc([N+](=O)[O-])cc2)s1 |
| 183 to 184 °C | NC(=S)Nc1ccc(I)cc1 |
| 85 to 87 °C | O=S(=O)(Cl)c1ccc(-c2ccccc2)s1 |
| 119 °C | COc1ccc2ccc(=O)oc2c1 |
| 150 °C | Cc1ccc(Oc2ncccc2N)c2c1CCC2 |
| 115 to 117 °C | O=C(CBr)c1ccc(-c2ccccc2)s1 |
| 254 °C | O=C(Nc1ccccc1)C(=O)Nc1ccccc1 |
| 141 °C | NC(=O)c1ccco1 |
| 83 °C | OCCN(CCO)CCc1ccc(COc2ccccc2)cc1 |
| 93 to 94 °C | NC(COc1ccccc1)=NO |
| 43 °C | Nc1ccc(SC(F)(F)F)c(Cl)c1 |
| 15 to 17 °C | CCCc1ccc(-c2ccccc2)cc1 |
| 204 to 206 °C | Oc1ccc(-n2ccnc2)cc1 |
| 160 to 161 °C | COc1ccc(-c2n[nH]cc2C=O)cc1 |
| 67 to 69 °C | ClCc1ccc(-c2nccs2)cc1 |
| -62 °C | Cc1ccccc1F |
